Test system: 293T cells
Assay: SamRNA-LUC transfection efficiency of LNPs by plate reader (luminescence)
Type: cell-based
Conditions: LNP-SamRNA-Luc formulated with the lipid, incubated overnight, FIG. 11
Experimental: The LNPs containing SamRNA-GFP (or SamRNA-LUC, 100 ng/well) were added into 96-well plate which was pre-seeded with 293T, C2C12 or MC38 cells. After 24 hours incubation at 37° C. and 5% CO2, the luciferase SamRNA transfection efficiency was measured by plate reader (Perkin Elmer Envision 2104). The GFP SamRNA transfection efficiency was measured by flow cytometry (BD FACSymphony™ A5 SE Cell Analyzer).

SMILES	bioluminescence signals compared with MC3-LNP-SamRNA-Luc
CCCCCCCCCCCCC(=O)N(C(CCCCCCC)CCCCCCC)C(C(=O)NCC(=O)OCC)C1CCN(CC)CC1 (centres unmarked) [P1C1, Ethyl (2-(1-ethylpiperidin-4-yl)-2-(N-(pentadecan-8-yl)tridecanamido)acetyl)glycinate]	stronger bioluminescence signals than MC3-LNP-SamRNA-Luc
CCCCCCCCCCCCCC(=O)N(CC(CCCCCCCC)CCCCCCCCCC)C(C(=O)NCC(=O)OCC)C1CCN(CC)CC1 (centres unmarked) [P1D4, Ethyl (2-(1-ethylpiperidin-4-yl)-2-(N-(2-octyldodecyl)tetradecanamido)acetyl)glycinate]	stronger bioluminescence signals than MC3-LNP-SamRNA-Luc
CCCCCCCCCCCCCCCC(=O)N(C(CCCCCCCC)CCCCCCCC)C(C(=O)NC1=CCCCC1)C1CCN(CC)CC1 (centres unmarked) [P6A2, N-(2-(cyclohex-1-en-1-ylamino)-1-(1-ethylpiperidin-4-yl)-2-oxoethyl)-N-(heptadecan-9-yl)palmitamide]	stronger bioluminescence signals than MC3-LNP-SamRNA-Luc
CCCCCCCCC(CCCCCCCC)N(C(=O)CCCCCCC)C(C(=O)NCCCC)C1CCN(CC)CC1 (centres unmarked) [P14A2, N-(2-(butylamino)-1-(1-ethylpiperidin-4-yl)-2-oxoethyl)-N-(heptadecan-9-yl)octanamide]	stronger bioluminescence signals than MC3-LNP-SamRNA-Luc
CCCCCCCCCCC(=O)N(C(CCCCCCC)CCCCCCC)C(C(=O)NCCCC)C1CCN(CC)CC1 (centres unmarked) [P16B1, N-(2-(butylamino)-1-(1-ethylpiperidin-4-yl)-2-oxoethyl)-N-(pentadecan-8-yl)undecanamide]	stronger bioluminescence signals than MC3-LNP-SamRNA-Luc
CCCCCCCCCCCCCC(=O)N(CC(CCCCCCCC)CCCCCCCCCC)C(C(=O)NC1CCCCC1)C1CCN(CC)CC1 (centres unmarked) [P26D4, N-(2-(cyclohexylamino)-1-(1-ethylpiperidin-4-yl)-2-oxoethyl)-N-(2-octyldodecyl) tetradecanamide]	stronger bioluminescence signals than MC3-LNP-SamRNA-Luc
CCCCCCCCCCCCCCCC(=O)N(C(CCCCCCC)CCCCCCC)C(C(=O)NC1CCCCC1)C1CCN(CC)CC1 (centres unmarked) [P30A1, N-(2-(cyclohexylamino)-1-(1-ethylpiperidin-4-yl)-2-oxoethyl)-N-(pentadecan-8-yl)palmitamide]	stronger bioluminescence signals than MC3-LNP-SamRNA-Luc
CCCCCCCCCCCCCCCCC(=O)N(C(CCCCCCC)CCCCCCC)C(CC1CCN(C)CC1)C(=O)NC1CCCCC1 (centres unmarked) [P30B7, N-(1-(cyclohexylamino)-3-(1-methylpiperidin-4-yl)-1-oxopropan-2-yl)-N-(pentadecan-8-yl)heptadecanamide]	stronger bioluminescence signals than MC3-LNP-SamRNA-Luc
CCCCCCCCCCCCCCCCCC(=O)N(C(CCCCCCC)CCCCCCC)C(CC1CCN(C)CC1)C(=O)NC1CCCCC1 (centres unmarked) [P30C7, N-(1-(cyclohexylamino)-3-(1-methylpiperidin-4-yl)-1-oxopropan-2-yl)-N-(pentadecan-8-yl)stearamide]	stronger bioluminescence signals than MC3-LNP-SamRNA-Luc
CCCCCCCCCCCCCC(=O)N(C(CCCCCCC)CCCCCCC)C(C(=O)NC1CCCCCC1)C1CCN(CC)CC1 (centres unmarked) [P38D1, N-(2-(cycloheptylamino)-1-(1-ethylpiperidin-4-yl)-2-oxoethyl)-N-(pentadecan-8-yl)tetradecanamide]	stronger bioluminescence signals than MC3-LNP-SamRNA-Luc
CCCCCCCCCCCCCC(=O)N(C(CCCCCCC)CCCCCCC)C(CC1CCN(C)CC1)C(=O)NC1CCCCCC1 (centres unmarked) [P38D7, N-(1-(cycloheptylamino)-3-(1-methylpiperidin-4-yl)-1-oxopropan-2-yl)-N-(pentadecan-8-yl)tetradecanamide]	stronger bioluminescence signals than MC3-LNP-SamRNA-Luc
CCCCCCCCCCCCCC(=O)N(C(CCCCCCCC)CCCCCCCC)C(CC1CCN(C)CC1)C(=O)NC1CCCCCC1 (centres unmarked) [P38D8, N-(1-(cycloheptylamino)-3-(1-methylpiperidin-4-yl)-1-oxopropan-2-yl)-N-(heptadecan-9-yl)tetradecanamide]	stronger bioluminescence signals than MC3-LNP-SamRNA-Luc
CCCCCCCCCCC(=O)N(CC(CCCCCCCC)CCCCCCCCCC)C(CC1CCN(C)CC1)C(=O)NC1CCCCCC1 (centres unmarked) [P40B10, N-(1-(cycloheptylamino)-3-(1-methylpiperidin-4-yl)-1-oxopropan-2-yl)-N-(2-octyldodecyl)undecanamide]	stronger bioluminescence signals than MC3-LNP-SamRNA-Luc
CCCCCCCCCCCC(=O)N(CC(CCCCCCCC)CCCCCCCCCC)C(CC1CCN(C)CC1)C(=O)NC1CCCCCC1 (centres unmarked) [P40C10, N-(1-(cycloheptylamino)-3-(1-methylpiperidin-4-yl)-1-oxopropan-2-yl)-N-(2-octyldodecyl)dodecanamide]	stronger bioluminescence signals than MC3-LNP-SamRNA-Luc
CCCCCCCCCCCC(=O)N(C(CCCCCCCCCCC)CCCCCCCCCCC)C(CC1CCN(C)CC1)C(=O)NC1CCCCCC1 (centres unmarked) [P40C11, N-(1-(cycloheptylamino)-3-(1-methylpiperidin-4-yl)-1-oxopropan-2-yl)-N-(tricosan-12-yl)dodecanamide]	stronger bioluminescence signals than MC3-LNP-SamRNA-Luc
CCCCCCCCCCCCCCC(=O)N(C(CCCCCCC)CCCCCCC)C(CC1CCN(C)CC1)C(=O)NC1CCCCCC1 (centres unmarked) [P40D7, N-(1-(cycloheptylamino)-3-(1-methylpiperidin-4-yl)-1-oxopropan-2-yl)-N-(pentadecan-8-yl)pentadecanamide]	stronger bioluminescence signals than MC3-LNP-SamRNA-Luc
CCCCCCCCCCCCC(=O)N(CC(CCCCCCCCCC)CCCCCCCCCCCC)C(CC1CCN(C)CC1)C(=O)NC(C)(C)C (centres unmarked) [P51C12, N-(1-(tert-butylamino)-3-(1-methylpiperidin-4-yl)-1-oxopropan-2-yl)-N-(2-decyltetradecyl)tridecanamide]	stronger bioluminescence signals than MC3-LNP-SamRNA-Luc
CCCCCCCCCCCC(CCCCCCCCCCC)N(C(=O)CCCCCCCCC)C(C(=O)NC(C)(C)C)C1CCN(CC)CC1 (centres unmarked) [P53A5, N-(2-(tert-butylamino)-1-(1-ethylpiperidin-4-yl)-2-oxoethyl)-N-(tricosan-12-yl)decanamide]	stronger bioluminescence signals than MC3-LNP-SamRNA-Luc
CCCCCCCCCCCCC(CCCCCCCCCC)CN(C(=O)CCCCCCCCC)C(C(=O)NC(C)(C)C)C1CCN(CC)CC1 (centres unmarked) [P53A6, N-(2-(tert-butylamino)-1-(1-ethylpiperidin-4-yl)-2-oxoethyl)-N-(2-decyltetradecyl)decanamide]	stronger bioluminescence signals than MC3-LNP-SamRNA-Luc
CCCCCCCCCCCCC(CCCCCCCCCC)CN(C(=O)CCCCCCCCCC)C(C(=O)NC12CC3CC(CC(C3)C1)C2)C1CCN(CC)CC1 (centres unmarked) [P54B6, N-(2-(((1s,3s)-adamantan-1-yl)amino)-1-(1-ethylpiperidin-4-yl)-2-oxoethyl)-N-(2-decyltetradecyl)undecanamide]	stronger bioluminescence signals than MC3-LNP-SamRNA-Luc

— patent publication US12655114B2, “Ionizable lipid compounds and lipid nanoparticle compositions” (SunVax mRNA Therapeutics Inc., priority 2022, dated 2026)
